From patent publication US11608341B2, “Substituted tetrahydropyrazolo[3,4-d]pyrimidines and tetrahydropyrazolo[4,3-d]pyrimidines as C5A receptor modulators” (Idorsia Pharmaceuticals Ltd., priority 2018, dated 2023) come the findings set out here.

Broadly, the IC50 is the concentration that gives 50% inhibition.

Molecules are shown by their SMILES.

The target in the experiment is T1, C5AR1 (Homo sapiens, UniProt P21730).
T1 construct: host or cells: CHO-K1
T1 sequence (P21730 1-350): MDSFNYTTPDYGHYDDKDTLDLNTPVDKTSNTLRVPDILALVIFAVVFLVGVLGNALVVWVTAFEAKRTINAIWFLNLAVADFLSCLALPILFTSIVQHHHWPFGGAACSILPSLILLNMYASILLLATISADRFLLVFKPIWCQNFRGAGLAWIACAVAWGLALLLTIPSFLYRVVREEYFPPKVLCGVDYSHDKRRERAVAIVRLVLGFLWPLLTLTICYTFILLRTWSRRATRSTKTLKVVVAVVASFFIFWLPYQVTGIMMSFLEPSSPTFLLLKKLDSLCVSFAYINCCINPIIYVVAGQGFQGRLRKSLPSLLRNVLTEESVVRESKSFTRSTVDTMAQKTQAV
Kind of experiment: In vitro assay: antagonism of C5a-induced beta-arrestin recruitment (PathHunter) in CHO-K1 C5AR1 beta-arrestin cell line. The class given is cell-based. Conditions: antagonistic activity, 1-10 nM C5a agonist, geometric mean where several measurements, read-out: C5aR IC50. Put shortly: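 Antagonist or DMSO added first, then C5a (1-10 nM, added at 6-fold end concentration), 1.5 h at 37 °C. PathHunter detection reagent was added for 45 min at RT before plate reading. IC50s come from antagonist serial dilutions in nmol/l and are geometric means of several measurements.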
Turning to `CC1c2cn(C3CC3)nc2N(Cc2ccccc2C(F)(F)F)C(=O)N1C1CCN(c2c(F)cccc2C(F)F)CC1` (single isomer, unassigned) [Example 311], the IC50 is 13 nM.
With `Cc1cccc(F)c1N1CCC(N2Cc3c(ncn3C)N(Cc3ccccc3C(F)(F)F)C2=O)CC1` [Example 16], the concentration for half-maximal inhibition (IC50) was 74 nM.
Next, `Cc1cccc(F)c1N1CCC(N2C(=O)N(Cc3ccccc3C(F)(F)F)c3cn(C)nc3C2C)CC1` (single isomer, unassigned) [Example 203]: 74 nM.
To `COc1cccnc1N1CCC(N2Cc3cn(C)nc3N(Cc3ccccc3C(F)(F)F)C2=O)CC1` [Example 70] belongs 512 nM; to `Cc1cccc(F)c1N1CCC(N2Cc3nn(CC(C)(C)F)cc3N(Cc3ccccc3C(F)(F)F)C2=O)CC1` [Example 176], 16 nM.
Consider `Cc1cccc(F)c1N1CCC(N2Cc3cn(CC(C)(C)N)nc3N(Cc3ccccc3C(F)(F)F)C2=O)CC1` [Example 118], for which the IC50 came out at 578 nM.
Next, `Cc1cccc(F)c1N1CCC(N2C(=O)N(Cc3ccccc3C3CC3)c3cn(C4CCCCO4)nc3C2C)CC1` (stereo not shown) [Example 268]: 72 nM; `Cc1cccc(F)c1N1CCCC(N2Cc3cn(C)nc3N(Cc3ccccc3C(F)(F)F)C2=O)CC1` (single isomer, unassigned) [Example 225]: 34 nM; `Cn1cc2c(n1)N(Cc1ccccc1C(F)(F)F)C(=O)N(C1CCN(c3ccccc3C3CC3)CC1)C2` [Example 258]: 14 nM.
In the case of `Cn1cc2c(n1)N(Cc1ccccc1C1CC1)C(=O)N(C1CCN(c3c(F)cccc3C3CC3)CC1)C2` [Example 307], the IC50 came to 30 nM.
For the molecule `COc1nccc(C(F)F)c1N1CCC(N2C(=O)N(Cc3ccccc3C(F)(F)F)c3n[nH]cc3C2C)CC1` (single isomer, unassigned) [Example 352], the IC50 was determined as 11 nM.
To `Cc1cccc(F)c1N1CCC(N2Cc3cn(C[C@H]4CC(F)(F)CN4C(=O)OC(C)(C)C)nc3N(Cc3ccccc3C(F)(F)F)C2=O)CC1` [Example 108] belongs 21 nM.
`Cc1cccc(F)c1N1CCC(N2Cc3cn(C(=O)OCC(C)C)nc3N(Cc3ccccc3C(F)(F)F)C2=O)CC1` [Example 148]: the IC50 is 341 nM.
To `Cc1cccc(F)c1N1CCC(N2Cc3cn(C)nc3N(Cc3ccccc3C3CC3)C2=O)CC1` [Example 228] belongs 10 nM; to `COc1nccc(C(F)F)c1N1CCC(N2C(=O)N(Cc3ccccc3C3CC3)c3nn(C)cc3C2C)CC1` (single isomer, unassigned) [Example 367], 286 nM; to `Cc1cccc(F)c1N1CCC(N2Cc3cn(CCN4CCN(C)CC4)nc3N(Cc3ccccc3C(F)(F)F)C2=O)CC1` [Example 65], 120 nM.
Next, `Cc1cccc(F)c1N1CCC(N2Cc3cn(CC(C)(C)NS(=O)(=O)c4ccc(Cl)cc4)nc3N(Cc3ccccc3C(F)(F)F)C2=O)CC1` [Example 101]: 22 nM; `CC1c2nn(C3CC3)cc2N(Cc2ccccc2C(F)(F)F)C(=O)N1C1CCN(c2c(F)cccc2Cl)CC1` (single isomer, unassigned) [Example 327]: 520 nM; `COc1nccc(C)c1N1CCC(N2C(=O)N(Cc3ccccc3C3CC3)c3nn(C)cc3C2C)CC1` (single isomer, unassigned) [Example 369]: 256 nM.
With `Cc1cccc(F)c1N1CCC(N2Cc3cn(C)nc3N(Cc3ccccc3Cl)C2=O)CC1` [Example 233], the IC50 came out at 10 nM.
For the molecule `Cc1cccc(F)c1N1CCC(N2Cc3nn(C)cc3N(C(C)c3ccccc3C(F)(F)F)C2=O)CC1` (single isomer, unassigned) [Example 261], the IC50 came to 580 nM.
Next, `COc1nccc(Cl)c1N1CCC(N2C(=O)N(Cc3ccccc3C3CC3)c3nn(C)cc3C2C)CC1` (single isomer, unassigned) [Example 378]: 6 nM; `CNc1ccc(C(F)(F)F)c(CN2C(=O)N(C3CCN(c4c(C)cccc4F)CC3)Cc3cn(C)nc32)n1` [Example 51]: 46 nM.
In the case of `Cc1cccc(F)c1N1CCC(N2Cc3cn(CC(CO)N(C)C)nc3N(Cc3ccccc3C(F)(F)F)C2=O)CC1` (stereo not shown) [Example 56], the IC50 turned out to be 91 nM.
Next, `COc1nccc(C(F)F)c1N1CCC(N2C(=O)N(Cc3ccccc3C3CC3)c3nn(C4CC4)cc3C2C)CC1` (single isomer, unassigned) [Example 382]: 21 nM.
Turning to `Cc1cccc(F)c1N1CCC(N2Cc3cn(C(C)(C)CO)nc3N(Cc3ccccc3C(F)(F)F)C2=O)CC1` [Example 32], the IC50 came out at 14 nM.
To `Cc1cccc(C)c1N1CCC(N2Cc3cn(C)nc3N(Cc3ccccc3C(F)(F)F)C2=O)C1` (single isomer, unassigned) [Example 57] belongs 19 nM; to `Cc1cccc(F)c1N1CCC(N2Cc3cn(C4CC4)nc3N(Cc3ccccc3C(F)(F)F)C2=O)CC1` [Example 174], 7 nM.
Next, `Cc1cccc(F)c1N1CCC(N2Cc3c[nH]nc3N(Cc3ncccc3C(F)(F)F)C2=O)CC1` [Example 193]: 14 nM.
Next, `Cc1cccc(F)c1N1CCC(N2Cc3nn(CC(C)(F)F)cc3N(Cc3ccccc3C(F)(F)F)C2=O)CC1` [Example 198]: 13 nM; `COC(=O)C(C)Cn1cc2c(n1)N(Cc1ccccc1C(F)(F)F)C(=O)N(C1CCN(c3c(C)cccc3F)CC1)C2` (stereo not shown) [Example 31]: 13 nM.
Turning to `CC1c2cn(C)nc2N(Cc2ccccc2C2CC2)C(=O)N1C1CCN(c2c(F)cccc2Br)CC1` (single isomer, unassigned) [Example 385], the IC50 was 491 nM.
To `Cc1cccc(F)c1N1CCC(N2Cc3cn(C[C@@H]4CCN4)nc3N(Cc3ccccc3C(F)(F)F)C2=O)CC1` [Example 122] belongs 342 nM.
To `CC1c2cn(C)nc2N(Cc2ccccc2C2CC2)C(=O)N1C1CCN(c2c(F)cccc2Cl)CC1` (single isomer, unassigned) [Example 321] belongs 196 nM.
To `COC[C@@H](O)Cn1cc2c(n1)N(Cc1ccccc1C(F)(F)F)C(=O)N(C1CCN(c3c(C)cccc3F)CC1)C2` [Example 46] belongs 21 nM; to `Cc1cccc(F)c1N1CCC(N2C(=O)N(Cc3ccccc3C(F)(F)F)c3nn(CC(C)(F)F)cc3C2C)CC1` (single isomer, unassigned) [Example 305], 16 nM.
Consider `Cc1cccc(F)c1N1CCC(N2Cc3nn(C)cc3N(C(C)c3ccccc3C(F)(F)F)C2=O)CC1` (single isomer, unassigned) [Example 262], for which the IC50 is 472 nM.
Next, `Cn1cc2c(n1)CN(C1CCN(c3c(F)cccc3OC(F)(F)F)CC1)C(=O)N2Cc1ccccc1C(F)(F)F` [Example 270]: 54 nM.
To `Cc1cccc(F)c1N1CCC(N2Cc3cn(CC4(F)COC4)nc3N(Cc3ccccc3C(F)(F)F)C2=O)CC1` [Example 164] belongs 13 nM; to `COc1nccc(C(F)F)c1N1CCC(N2C(=O)N(Cc3ccccc3C3CC3)c3n[nH]cc3C2C)CC1` (single isomer, unassigned) [Example 371], 1330 nM; to `Cc1cccc(F)c1N1CCC(N2Cc3cn(CC(C)CN)nc3N(Cc3ccccc3C(F)(F)F)C2=O)CC1` (stereo not shown) [Example 45], 203 nM.
For `COc1nccc(C(F)F)c1N1CCC(N2C(=O)N(Cc3ccccc3C(F)(F)F)c3n[nH]cc3C2C)CC1` (single isomer, unassigned) [Example 353], the IC50 worked out at 997 nM.
Consider `Cc1cccc(F)c1N1CCC(N2Cc3cn(CC(O)CO)nc3N(Cc3ccccc3C(F)(F)F)C2=O)CC1` (stereo not shown) [Example 40], for which the IC50 worked out at 27 nM.
`Cc1cccc(F)c1N1CCC(N2Cc3cn(C)nc3N(Cc3ccccc3OC3COC3)C2=O)CC1` [Example 250]: the IC50 stood at 10 nM.
As for `Cc1cccc(F)c1N1CCC(N2Cc3cn(CC(N)=O)nc3N(Cc3ccccc3C(F)(F)F)C2=O)CC1` [Example 29], the IC50 came out at 103 nM.
To `Cc1cccc(F)c1N1CCC(N2Cc3cn(CC(C)CO)nc3N(Cc3ccccc3C(F)(F)F)C2=O)CC1` (stereo not shown) [Example 39] belongs 16 nM.
Next, `Cc1ccnc(F)c1N1CCC(N2Cc3cn(C)nc3N(Cc3ccccc3C(F)(F)F)C2=O)CC1` [Example 52]: 72 nM; `CC1c2cn(C3CC3)nc2N(Cc2ccccc2C(F)(F)F)C(=O)N1C1CCN(c2c(F)cccc2C(F)F)CC1` (single isomer, unassigned) [Example 312]: 72 nM.
To `Cc1cccc(F)c1N1CCC(N2Cc3cn(C4CN(CC(C)C)C4)nc3N(Cc3ccccc3C(F)(F)F)C2=O)CC1` [Example 104] belongs 146 nM; to `Cc1nn(C)c(N2CCC(N3Cc4cn(C)nc4N(Cc4ccccc4C(F)(F)F)C3=O)CC2)c1C#N` [Example 229], 550 nM.
On to `Cn1cc2c(n1)N(Cc1ccccc1C1CC1)C(=O)N(C1CCN(c3c(F)cccc3OC(F)(F)F)CC1)C2` [Example 281], for which the IC50 was determined as 17 nM.
Next, `Cc1cccc(F)c1N1CC[C@@H](N2Cc3cn(C)nc3N(Cc3ccccc3C(F)(F)F)C2=O)C1` [Example 55]: 11 nM.
As for `Cc1cccc(F)c1N1CCC(N2Cc3cn(CC(C)O)nc3N(Cc3ccccc3C(F)(F)F)C2=O)CC1` (stereo not shown) [Example 33], the IC50 was found to be 12 nM.
To `Cc1cccc(F)c1N1CCC(N2Cc3cn(CC4(F)CC4)nc3N(Cc3ncccc3C(F)(F)F)C2=O)CC1` [Example 200] belongs 4 nM; to `COC(=O)Cn1cc2c(n1)CN(C1CCN(c3c(C)cccc3F)CC1)C(=O)N2Cc1ccccc1C(F)(F)F` [Example 18], 132 nM.
